Measurements: publication PMC3752901 (Clinical cancer research : an official journal of the …, 2013)

Experiments:
[1] = biological target: T1, human ABCC4 (Homo sapiens, UniProt O15439); experiment: Uptake into inside-out Sf9 vesicles expressing ABCC4; details: GSH 2mM
T1 sequence (O15439 1-1325): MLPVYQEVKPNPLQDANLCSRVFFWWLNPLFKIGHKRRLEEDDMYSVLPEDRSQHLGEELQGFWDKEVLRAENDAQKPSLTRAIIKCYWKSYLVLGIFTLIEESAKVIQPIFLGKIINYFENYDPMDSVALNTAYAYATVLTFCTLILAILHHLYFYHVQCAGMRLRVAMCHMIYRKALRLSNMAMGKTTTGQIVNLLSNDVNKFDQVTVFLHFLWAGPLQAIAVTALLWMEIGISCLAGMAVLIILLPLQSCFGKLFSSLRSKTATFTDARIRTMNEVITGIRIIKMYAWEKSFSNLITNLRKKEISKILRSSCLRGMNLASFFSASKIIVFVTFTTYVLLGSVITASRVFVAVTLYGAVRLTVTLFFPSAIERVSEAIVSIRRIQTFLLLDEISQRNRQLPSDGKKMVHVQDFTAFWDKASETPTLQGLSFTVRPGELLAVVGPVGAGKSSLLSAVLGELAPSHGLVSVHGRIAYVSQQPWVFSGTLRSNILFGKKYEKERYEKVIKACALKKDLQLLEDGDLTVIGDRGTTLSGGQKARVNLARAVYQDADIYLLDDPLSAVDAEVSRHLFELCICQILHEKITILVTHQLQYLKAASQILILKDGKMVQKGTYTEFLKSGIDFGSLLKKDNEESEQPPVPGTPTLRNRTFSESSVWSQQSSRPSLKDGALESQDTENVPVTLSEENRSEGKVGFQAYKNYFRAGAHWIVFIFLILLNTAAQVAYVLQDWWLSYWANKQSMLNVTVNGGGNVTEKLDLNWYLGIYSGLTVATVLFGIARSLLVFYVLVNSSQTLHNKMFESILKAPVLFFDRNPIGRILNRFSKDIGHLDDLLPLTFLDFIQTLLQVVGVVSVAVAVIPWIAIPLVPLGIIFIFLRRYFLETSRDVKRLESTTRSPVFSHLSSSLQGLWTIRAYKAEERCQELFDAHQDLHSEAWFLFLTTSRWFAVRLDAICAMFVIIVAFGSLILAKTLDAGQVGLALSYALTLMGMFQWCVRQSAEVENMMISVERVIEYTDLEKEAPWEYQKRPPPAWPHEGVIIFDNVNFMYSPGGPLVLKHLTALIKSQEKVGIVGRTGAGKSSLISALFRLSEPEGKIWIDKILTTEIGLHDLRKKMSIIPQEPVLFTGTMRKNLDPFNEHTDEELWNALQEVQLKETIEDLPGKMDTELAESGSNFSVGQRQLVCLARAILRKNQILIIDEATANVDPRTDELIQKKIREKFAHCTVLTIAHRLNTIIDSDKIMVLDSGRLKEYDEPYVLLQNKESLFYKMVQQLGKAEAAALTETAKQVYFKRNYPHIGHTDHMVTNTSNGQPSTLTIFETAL

[2] = system: ABCC4; details: cited from earlier work; for Km: read-out: Michaelis-Menten constant (Km) for ABCC4
[3] = ref 24 (methotrexate), 14 (cefadroxil); cited from earlier work
[4] = biological target: T2, mouse Abcc4 (Mus musculus, UniProt E9Q236); details: 4 h
T2 sequence (E9Q236 1-1325): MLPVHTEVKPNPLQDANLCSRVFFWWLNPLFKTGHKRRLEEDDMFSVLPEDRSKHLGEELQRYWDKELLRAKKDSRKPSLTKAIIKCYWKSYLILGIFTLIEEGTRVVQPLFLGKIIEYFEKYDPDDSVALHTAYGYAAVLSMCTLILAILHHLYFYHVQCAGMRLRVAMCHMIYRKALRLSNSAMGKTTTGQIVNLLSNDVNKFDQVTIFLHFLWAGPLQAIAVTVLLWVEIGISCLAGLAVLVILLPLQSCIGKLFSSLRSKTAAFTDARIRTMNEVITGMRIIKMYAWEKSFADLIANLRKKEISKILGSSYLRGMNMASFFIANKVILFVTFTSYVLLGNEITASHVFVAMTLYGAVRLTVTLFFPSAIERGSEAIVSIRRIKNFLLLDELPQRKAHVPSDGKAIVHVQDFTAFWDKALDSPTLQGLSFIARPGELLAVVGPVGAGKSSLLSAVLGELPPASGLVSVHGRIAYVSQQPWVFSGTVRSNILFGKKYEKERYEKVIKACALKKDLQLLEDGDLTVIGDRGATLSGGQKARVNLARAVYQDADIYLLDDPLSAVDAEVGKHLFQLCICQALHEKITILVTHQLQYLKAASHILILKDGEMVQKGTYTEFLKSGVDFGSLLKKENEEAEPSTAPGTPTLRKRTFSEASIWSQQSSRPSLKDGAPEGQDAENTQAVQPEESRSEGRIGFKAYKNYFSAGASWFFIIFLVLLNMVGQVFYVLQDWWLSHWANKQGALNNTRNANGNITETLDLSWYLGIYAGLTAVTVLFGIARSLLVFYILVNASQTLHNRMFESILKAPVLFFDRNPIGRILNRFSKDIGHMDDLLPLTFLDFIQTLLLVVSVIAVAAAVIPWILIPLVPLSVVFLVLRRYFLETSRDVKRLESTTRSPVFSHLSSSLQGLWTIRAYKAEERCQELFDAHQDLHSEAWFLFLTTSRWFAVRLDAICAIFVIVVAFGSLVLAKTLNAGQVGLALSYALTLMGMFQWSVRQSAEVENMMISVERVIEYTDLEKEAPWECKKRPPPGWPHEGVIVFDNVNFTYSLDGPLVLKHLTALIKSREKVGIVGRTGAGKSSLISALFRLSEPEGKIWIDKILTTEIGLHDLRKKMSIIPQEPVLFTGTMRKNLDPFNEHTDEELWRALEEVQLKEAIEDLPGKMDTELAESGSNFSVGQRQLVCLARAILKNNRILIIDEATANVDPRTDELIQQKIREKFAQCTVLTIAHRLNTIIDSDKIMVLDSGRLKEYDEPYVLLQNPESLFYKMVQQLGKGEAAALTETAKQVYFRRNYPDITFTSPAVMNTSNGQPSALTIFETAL

[5] = Plasma pharmacokinetics in wildtype and Abcc4; details: oral 50 mg/kg, wildtype vs Abcc4(−/−) mice
[6] = biological target: T2, mouse Abcc4; experiment: Accumulation/efflux in Saos-2 cells transfected with Abcc4; details: 100 μM, 4-h incubation

## C[C@]12CC[C@@H]3c4ccc(O)cc4CC[C@H]3[C@@H]1CC[C@@H]2O[C@@H]1O[C@H](C(=O)O)[C@@H](O)[C@H](O)[C@H]1O [E2G, Estradiol-17β-D-glucuronide]
[1]
  increase of ABCC4-mediated transport by GSH: about 2 fold

## CN(Cc1cnc2nc(N)nc(N)c2n1)c1ccc(C(=O)N[C@@H](CCC(=O)O)C(=O)O)cc1 [MTX, methotrexate]
[2]
  Km: 220 to 1300 µM
[3]
  pharmacokinetic profile after oral administration in Abcc4(−/−) mice: unchanged

## Nc1ncnc2c1ncn2CCOCP(=O)(O)O [adefovir]
[2]
  Km: > 1000 µM

## CC(=O)Oc1ccccc1C(=O)O [aspirin, acetylsalicylic acid]
[2]
  transported substrate of human ABCC4: transported substrate of human ABCC4
[4]
  substrate of mouse Abcc4: substrates of mouse Abcc4

## CC1=C(C(=O)O)N2C(=O)[C@@H](NC(=O)[C@H](N)c3ccc(O)cc3)[C@H]2SC1 [cefadroxil]
[3]
  pharmacokinetic profile after oral administration in Abcc4(−/−) mice: unchanged

## Cc1ccc(NC(=O)c2ccc(CN3CCN(C)CC3)cc2)cc1Nc1nccc(-c2cccnc2)n1 [imatinib]
[5]
  effect of Abcc4-deficiency on the oral pharmacokinetic profile: not substantially affected
[6]
  transport by mouse Abcc4 (accumulation in Saos-2 cells overexpressing Abcc4 compared to control cells): no noticeable efflux transport

## Nc1nc2c(c(=O)[nH]1)N(C=O)C(CNc1ccc(C(=O)N[C@@H](CCC(=O)O)C(=O)O)cc1)CN2 (stereo partly drawn) [leucovorin]
[2]
  Km: 640 µM

## O=C(O)c1ccccc1O [salicylic acid]
[4]
  substrate of mouse Abcc4: substrates of mouse Abcc4

## C[C@H](Cn1cnc2c(N)ncnc21)OCP(=O)(O)O [tenofovir]
[2]
  Km: > 1000 µM
